# Measured values reported in US8263344B2, “Compounds regulating calreticulin, KDEL receptor and/or Erp-57 cell surface exposure and uses thereof to evaluate the efficiency of a cancer treatment” (Institut Gustave Roussy, priority 2006, dated 2012).
# Legend:
# CT26 tumour cells = assay: Anti-tumour vaccination with treated (dying) CT26 cells and challenge with live tumour cells; type: in vivo, BALB/c mice; details: mouse, in vivo
# CT26 cells [1] = assay: Fluorescence detection of cell surface CRT; type: cell-based, murine
# Protocol: CT26 cells were cultured at 37° C. under 5% CO2 in RPMI 1640 medium supplemented with 10% FCS, penicillin, streptomycin, 1 mM pyruvate and 10 mM HEPES in the presence of doxorubicin (DX; 24 h, 25 μM), mitoxantrone (Mitox; 24 h, 1 μM, Sigma), idarubicin (24 h, 1 μM, Aventis, France), mitomycin C (30 μM, 48 h; Sanofi-Synthelabo, France), and/or zVAD-fmk (50 μM, 24 h; Bachem), tunicamycin (24 h, 65 μM), thapsigargin (24 h, 30 μM), brefeldin A (24 h, 50 μM, Sigma), etoposide (48 h, 25 μM, Tava classics), MG132 (48 h, 10 μM), ALLN (48 h, […]), betulinic acid (24 h, 10 μM), Hoechst 33343 (24 h, 0.2 μM), camptothecine (24 h, 15 μM), lactacystin (48 h, 60 μM), BAY 11-8072 (24 h, 30 μM), staurosporine (24 h, 1.5 μM), bafilomycin A1 (48 h, 300 nM), arsenic trioxide (24 h, 30 μM), C2-ceramide (C2-C; 24 h, 60 μM), calyculin A (48 h, 30 nM), or tautomycin (48 h, […], Sigma) and/or salubrinal (48 h, […], Calbiochem).
# CT26 cells (on a glass slide or in 12-well plates) were first washed with FACS buffer (1×PBS, 5% fetus bovine serum, and 0.1% sodium azide) and then incubated with rabbit anti-mouse CRT antibody (1:100, Stressgen) in FACS buffer at 4° C. for 30 min. Cells reacted with anti-rabbit IgG (H+L) Alexa fluor 488-conjugates (1:500) in FACS buffer at 4° C. for 30 min. After washing three times with FACS buffer, surface CRT was detected by cytofluorometric analysis on a FACS Vantage. In some experiments, cells were fixed with 4% paraformaldehyde, counterstained with Hoechst (2 μM; Sigma), followed by fluorescence microscopic assessment with a Leica IRE2 microscope equipped with a DC300F camera.
# CT26 tumours [2] = assay: Single intratumoural injection into established CT26 tumours, immunocompetent mice; type: in vivo, BALB/c mice; details: for therapeutic effect of intratumoural injection, single agent, immunocompetent mice: established 14-day-old CT26 tumours; for therapeutic effect combined with a cell death inducer (etoposide or mitomycin C), immunocompetent mice: intratumoural
# CT26 tumours [3] = assay: Single intratumoural injection into established CT26 tumours, athymic mice; parameters: species or system nu/nu Balb/c mice; details: mouse, in vivo
# MCA205, B16F10, J558 = assay: CRT exposure on a panel of murine tumour cell lines; type: cell-based
# HeLa, A549, HCT116 = assay: CRT exposure on a panel of human tumour cell lines; type: cell-based
# HCT116 colon cancer cell = assay: Calreticulin exposure with PP1/GADD34 inhibitory peptide (flow cytometry); type: cell-based, human; details: 2 hours
# Protocol: (§1) HCT116 cells (FIG. 7A) or CT26 cells (FIG. 7B) were cultured in complete mediums supplemented with 10% fetal calf serum alone or in the presence of the control peptide (VKKKKIKREIKI-lkaravafsekv) or the PP1/GADD34 inhibitory peptide (VKKKKIKREIKI-lkarkvrfsekv, denominated PP1 peptide) for 2 hours. Cells were washed twice with PBS and fixed in PFA (4% w/v) for 5 min. Cells were stained with an antibody against calreticulin (pAb from Abcam, ab2907) at 1:200 dilution or isotype control, in staining buffer (PBS, 1% FCS) for 30 min on ice, followed by washing. An anti-rabbit Alexa fluor 488 immunoglobulin conjugate (Molecular Probes-Invitrogen) diluted at 1:500 was added for an additional 30 min on ice before washing and analysed by flow cytometry (FACScan, Becton Dickinson). Propidium Iodide (50 μg/ml, Becton Dickinson) was added to the samples to label and exclude permeabilized (dead) cells.
# CT26 colon cancer cells = assay: as above; type: cell-based, murine; details: 2 hours
# Protocol: as §1
# CT26 cells [4] = assay: Phagocytosis of tumour cells by dendritic cells (DC); type: cell-based, BALB/c mice
# Protocol: BM cells were flushed from the tibias and femurs of BALB/c mice with culture medium composed of RPMI 1640 medium (Invitrogen Life Technologies) supplemented with 10% heat-inactivated FBS (Invitrogen), sodium pyruvate, 50 μM 2-ME (Sigma), 10 mM HEPES (pH 7.4), and penicillin/streptomycin (Invitrogen). After one centrifugation, BM cells were resuspended in Tris-ammonium chloride for 2 min to lyse RBC. After one more centrifugation, BM cells (1×10^6 cells/ml) were cultured in medium supplemented with 100 ng/ml recombinant mouse FLT3 ligand (R&D systems) in 6-well plates (Costar Corning). After 7 days, the non-adherent and loosely adherent cells were harvested with Versene, washed and transferred in 12-well plates (1.5×10^6 cells/plate) for cocultures with tumour cells.
# In 12-well plates, […] adherent CT26 cells were labelled with Celltracker Green (Calbiochem) and then incubated with drugs. In some experiments viable CT26 were coated with 2 μg/10^6 cells of chicken anti-CRT antibody (ABR affinity bioreagents) or an isotype control for 30 min prior to washing and feeding to dendritic cells Cs. Alternatively CT26 cells were coated with 2 μg/10^6 cells of rCRT on ice for 30 min and washed twice prior to addition to dendritic cells. Cells were then harvested, washed three times with medium supplemented with FBS and cocultured with immature DC for 2 hours at a ratio of 1:1 and 1:5. At the end of the incubation, cells were harvested with versene, pooled with non-adherent cells present in the supernatant, washed and stained with CD11c-FITC antibody. Phagocytosis was assessed by FACS analysis of double positive cells. Phagocytic indexes refer to the ratio between values obtained at 4° C. and values obtained at 37° C. of co-incubation between DC and tumour cells.
# CT26 cells [5] = assay: Local immune response: footpad injection, IFN-γ secretion by draining lymph node cells; type: in vivo, Balb/c mice; details: foot pad injection
# Protocol: FIG. 4C: Exogenous supply of CRT enhances the immunogenicity of CRT-negative dying cells. CT26 cells lacking CRT expression after depletion of CRT with a siRNA and mitoxantrone treatment or after mitomycin treatment were coated with rCRT (inserts) and then injected in the food pad, followed by assessment of the IFN-γsecretion by cells from the draining lymph nodes as in FIG. 4B.
# Tumours were evaluated weekly, using a caliper.
# DC = DC maturation ex vivo; type: cell-based; details: rCRT alone, over a large range of concentrations
molecule,measurement,setting,value
O=C(/C=C/c1ccccc1)NC(NC(=S)Nc1cccc2cccnc12)C(Cl)(Cl)Cl (stereo not drawn) [salubrinal],immunogenic cell death by PP1/GADD34 inhibition alone,CT26 tumour cells,not sufficient to induce immunogenic cell death
same,CRT exposure at the cell surface,CT26 cells [1],efficiently induced
same,"therapeutic effect of intratumoural injection, single agent, immunocompetent mice",CT26 tumours [2],no major therapeutic effect
same,"therapeutic effect combined with a cell death inducer (etoposide or mitomycin C), immunocompetent mice",CT26 tumours [2],stable disease or complete tumour regression
same,"therapeutic effect of intratumoural injection, single agent, nu/nu mice",CT26 tumours [3],no major therapeutic effect
same,"CRT exposure, murine tumour cell lines","MCA205, B16F10, J558",induced CRT exposure
same,"CRT exposure, human tumour cell lines","HeLa, A549, HCT116",induced CRT exposure
"VKKKKIKREIKI-LKARKVRFSEKV (VKKKKIKREIKILKARKVRFSEKV) [peptide comprising SEQ ID NO:4, fragment of GADD34 fused to a DPT-sh1 translocation motif]","exposure of calreticulin, HCT116",HCT116 colon cancer cell,capable of inducing the exposure of calreticulin
same,"exposure of calreticulin, CT26",CT26 colon cancer cells,capable of inducing the exposure of calreticulin
VKKKKIKREIKI-lkaravafsekv [mutant control peptide],"exposure of calreticulin, HCT116",HCT116 colon cancer cell,did not induce calreticulin exposure
same,"exposure of calreticulin, CT26",CT26 colon cancer cells,did not induce calreticulin exposure
"rCRT: recombinant CRT protein (rCRT), which binds to the surface of the cells (protein, UniProt P27797 18-417, looked up) Calreticulin: EPAVYFKEQFLDGDGWTSRWIESKHKSDFGKFVLSSGKFYGDEEKDKGLQTSQDARFYALSASFEPFSNKGQTLVVQFTVKHEQNIDCGGGYVKLFPNSLDQTDMHGDSEYNIMFGPDICGPGTKKVHVIFNYKGKNVLINKDIRCKDDEFTHLYTLIVRPDNTYEVKIDNSQVESGSLEDDWDFLPPKKIKDPDASKPEDWDERAKIDDPTDSKPEDWDKPEHIPDPDAKKPEDWDEEMDGEWEPPVIQNPEYKGEWKPRQIDNPDYKGTWIHPEIDNPEYSPDPSIYAYDNFGVLGLDLWQVKSGTIFDNFLITNDEAYAEEFGNETWGVTKAAEKQMKDKQDEEQRLKEEEEDKKRKEEEEAEDKEDDEDKDEDEEDEEDKEEDEEEDVPGQAKDEL",anti-cancer immune response to rCRT-coated cells without prior treatment with cell death inducers,CT26 tumour cells,failed to elicit an anti-cancer immune response
same,anti-tumour immune response to etoposide-treated cells coated with rCRT,CT26 tumour cells,elicited a vigorous anti-tumour immune response
same,"immunogenicity of mitoxantrone-treated CT26 cells with CRT knock-down, complemented with rCRT",CT26 tumour cells,restored
same,"phagocytosis by DC and CRT expression after CRT-specific siRNA, with addition of rCRT",CT26 cells [4],could reverse the defect
same,effect of rCRT injected into a distant site on intratumourally injected etoposide,CT26 tumours [2]; contralateral subcutaneous injection,did not ameliorate the antitumoural effects
same,"therapeutic effect of intratumoural injection, single agent, immunocompetent mice",CT26 tumours [2],no major therapeutic effect
same,"therapeutic effect combined with a cell death inducer (etoposide or mitomycin C), immunocompetent mice",CT26 tumours [2],able to cause tumour regression
same,"therapeutic effect of intratumoural injection, single agent, nu/nu mice",CT26 tumours [3],no major therapeutic effect
same,immunogenicity (interferon production by T cells from popliteal lymph node) of mitomycin-treated cells coated with rCRT,CT26 cells [5],greatly enhanced the immunogenicity
same,DC maturation,DC,could not promote DC maturation
